Experimental data from patent US6806359B1, “Hormone receptor compositions and methods” (The Salk Institute for Biological Studies, priority 1986, dated 2004).
Entries after “also recorded” stand apart in the source; their conditions may differ.

Assays:
[1] = target: T1, GR (Homo sapiens, UniProt P04150); details: read-out: KD for binding to GR; cited from earlier work
T1 sequence (P04150 1-777): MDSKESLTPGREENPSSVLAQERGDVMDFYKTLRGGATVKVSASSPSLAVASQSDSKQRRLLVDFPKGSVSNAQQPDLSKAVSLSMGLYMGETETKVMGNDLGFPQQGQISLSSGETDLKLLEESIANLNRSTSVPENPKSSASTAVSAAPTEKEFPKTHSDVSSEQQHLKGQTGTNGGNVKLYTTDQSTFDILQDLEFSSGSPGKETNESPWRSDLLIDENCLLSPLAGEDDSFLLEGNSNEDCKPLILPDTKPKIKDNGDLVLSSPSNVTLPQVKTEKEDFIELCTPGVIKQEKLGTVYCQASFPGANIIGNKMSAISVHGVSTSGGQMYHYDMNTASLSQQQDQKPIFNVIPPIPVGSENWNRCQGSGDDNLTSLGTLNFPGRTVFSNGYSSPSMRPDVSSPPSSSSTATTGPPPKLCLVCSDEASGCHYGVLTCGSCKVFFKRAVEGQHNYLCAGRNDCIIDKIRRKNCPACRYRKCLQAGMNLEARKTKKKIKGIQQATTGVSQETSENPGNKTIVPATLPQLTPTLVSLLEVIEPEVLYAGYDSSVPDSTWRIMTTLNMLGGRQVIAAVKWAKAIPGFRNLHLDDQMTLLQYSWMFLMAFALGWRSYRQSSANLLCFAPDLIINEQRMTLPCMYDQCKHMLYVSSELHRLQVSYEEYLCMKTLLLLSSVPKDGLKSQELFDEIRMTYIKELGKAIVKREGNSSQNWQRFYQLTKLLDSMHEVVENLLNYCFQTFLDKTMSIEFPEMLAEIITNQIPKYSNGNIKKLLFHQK

[2] = target: T2, hMR (Homo sapiens, UniProt P08235); experiment: Transcriptional activation of MMTV LTR (GMCAT) by hMR in transfected CV1 cells; format: cell-based; set-up: expressed in transfected cells; details: pRShMR + GMCAT, charcoal-treated serum, 10 nM steroid
T2 sequence (P08235 1-984): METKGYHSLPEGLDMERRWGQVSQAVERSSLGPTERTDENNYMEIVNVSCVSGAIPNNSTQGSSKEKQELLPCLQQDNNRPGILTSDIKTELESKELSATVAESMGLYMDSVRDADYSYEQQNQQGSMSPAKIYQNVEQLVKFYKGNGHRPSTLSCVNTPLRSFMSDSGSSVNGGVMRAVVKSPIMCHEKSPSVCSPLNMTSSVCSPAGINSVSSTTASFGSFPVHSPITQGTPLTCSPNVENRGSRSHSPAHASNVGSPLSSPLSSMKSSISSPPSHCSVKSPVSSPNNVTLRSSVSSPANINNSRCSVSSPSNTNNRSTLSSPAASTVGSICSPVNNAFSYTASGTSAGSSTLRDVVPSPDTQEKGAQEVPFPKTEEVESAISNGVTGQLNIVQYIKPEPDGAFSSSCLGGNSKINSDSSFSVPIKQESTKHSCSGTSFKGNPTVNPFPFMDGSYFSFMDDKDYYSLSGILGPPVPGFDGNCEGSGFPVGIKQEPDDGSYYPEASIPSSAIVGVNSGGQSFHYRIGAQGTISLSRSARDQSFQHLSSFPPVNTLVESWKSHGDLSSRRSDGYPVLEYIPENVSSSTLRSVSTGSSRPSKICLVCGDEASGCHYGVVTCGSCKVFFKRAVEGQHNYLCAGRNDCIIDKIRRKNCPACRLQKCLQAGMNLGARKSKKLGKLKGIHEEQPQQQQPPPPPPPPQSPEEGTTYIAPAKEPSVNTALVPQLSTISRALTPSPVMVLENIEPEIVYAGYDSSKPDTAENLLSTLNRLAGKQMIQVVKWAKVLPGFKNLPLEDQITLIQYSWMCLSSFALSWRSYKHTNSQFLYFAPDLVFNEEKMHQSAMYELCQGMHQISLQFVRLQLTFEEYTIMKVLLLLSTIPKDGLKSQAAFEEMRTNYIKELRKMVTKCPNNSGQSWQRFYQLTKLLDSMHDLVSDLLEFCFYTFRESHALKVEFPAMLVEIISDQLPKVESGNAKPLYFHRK
Excerpt: Steroid hormone action is characterized by hormone-dependent modulation of target gene transcription. The assay for transcriptional regulation by transfected hGR in CVI cells (see Experimental Section II) was adapted to hMR (FIGS. 42 and 44). The expression plasmid used for steroid-binding assays, pRShMR, was cotransfected with a reporter plasmid called GMCAT, which contains the MMTV LTR linked to the bacterial gene for chloramphenicol acetyltransferase (CAT). Thus CAT activity provides an enzymatic assay for the transcriptional activity of the MMTV promoter. The MMTV promoter contains several glucorticoid response elements (GRE's), enhancer-like DNA sequences that confer glucocorticoid responsiveness via interaction with the GR (21).
FIG. 42 Structure of GMCAT. This plasmid was cotransfected with the steroid receptors as a reporter gene for hormone-dependent transcriptional activation (see Experimental Section II). […] Transfected cells were maintained in DMEM with 5 percent fetal calf serum. Serum was treated with charcoal to eliminate free steroids in subsequent experiments so that the effects of exogenous steroids could be determined. […] (D) AC, 3-acetylchloramphenicol; C, chloramphenicol. Two days after transfection by calcium phosphate coprecipitation (43), extracts were prepared for CAT assay (44). The assays were incubated for 6 hours with 50 micrograms of protein extract.

[3] = target: T3, rTR alpha (Rattus norvegicus, UniProt P63059); experiment: ^125I-T3 binding to in vitro translated rTR alpha (Scatchard and competition); details: excess competitor
T3 construct: made in house; host or cells: rabbit reticulocyte lysate (SP6 transcripts of rbeA12B)
T3 sequence (P63059 1-410 isoform P63059-2): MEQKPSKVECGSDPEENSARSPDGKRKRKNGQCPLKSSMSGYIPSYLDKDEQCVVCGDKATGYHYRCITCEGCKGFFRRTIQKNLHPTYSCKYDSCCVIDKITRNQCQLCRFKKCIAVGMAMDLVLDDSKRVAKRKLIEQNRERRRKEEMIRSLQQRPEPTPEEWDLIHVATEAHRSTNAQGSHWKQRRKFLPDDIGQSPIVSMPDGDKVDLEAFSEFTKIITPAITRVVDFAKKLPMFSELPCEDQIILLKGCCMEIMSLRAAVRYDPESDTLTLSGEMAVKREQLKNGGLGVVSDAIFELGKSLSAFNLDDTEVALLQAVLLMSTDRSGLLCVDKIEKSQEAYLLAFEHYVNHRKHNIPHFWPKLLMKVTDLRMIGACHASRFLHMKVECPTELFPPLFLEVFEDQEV
Excerpt: In vitro translation and thyroid hormone binding of rTR alpha FIG. 69 rTR alpha was transcribed in vitro and translated in a rabbit reticulocyte lysate. […] Lane 1, no added RNA; lane 2, rbeA12, which contains the entire 5′ untranslated region; lane 3, rbeA12B, which contains only 97 bp of 5′ untranslated sequence. […] Samples from rbeA12B programmed lysates were mixed with increasing concentrations of unlabeled thyroid hormone or analogs to compete with labeled hormone. […] In vitro transcription and translation and hormone binding were performed as described (22, 23).
23. For in vitro transcription, the entire EcoRI insert of rbeA12 was cloned into pGEM1 (Promega Biotec). […] For thyroid hormone binding, transcriptions were performed with SP6 polymerase and 5 to 10 micrograms of rbeA12B linearized with SstI. […] Thyroid hormone binding for both the Scatchard and competition analyses were determined in the same manner, except that unlabeled protein was used for the Scatchard analysis. […] Specific hormone binding was determined by adding a 1000-fold excess of unlabeled hormone and assayed by counting radioactivity eluting in the excluded volume from a Sephadex G-25 fine (Pharmacia) 0.9-by 4.0-cm. column.

[4] = target: T1, GR; experiment: Transcriptional activation of MMTV LTR (GMCAT) by hGR in transfected CV1 cells; format: cell-based; set-up: The expression vector linking the RSV LTR to full length hGR cDNA (pRShGR alpha) was designed to obtain high levels of expression; expressed in transfected cells; host or cells: CV1 monkey kidney cells, cotransfected with GMCAT; details: pRShGR alpha + GMCAT, 10 nM steroid
[5] = target: MR; details: read-out: reported KD values for aldosterone binding to MR; cited from earlier work
[6] = target: T4, alpha-hGR (human glucocorticoid receptor) translated in vitro (Homo sapiens, UniProt P04150); experiment: Steroid binding (^3H-triamcinolone acetonide) of hGR translated in vitro in reticulocyte lysate, competition by unlabeled steroids; details: 100-fold excess unlabeled competitor (15 microM), 2 h at 0° C.
T4 construct: We describe the use of the SP6 transcription vector system to generate analytical amounts of full-length protein; made in house; host or cells: rabbit reticulocyte lysate (cell-free translation of SP6 transcripts)
T4 sequence (P04150 1-777): T1 sequence (P04150 1-777)
Procedure: Steroid-binding of alpha-hGR translated in vitro. […] Bars represent bound ^3H-triamcinolone acetonide (TA) determined with a 100-fold excess of various steroid competitors; 100% competition was determined using unlabeled TA as competitor. The values represent the mean of triplicate determinations, with error bars showing […].
Binding assays were performed in 100 microliters containing 10 mM Tris-HCl pH 7.4, 100 mM NaCl, 1 mM EDTA, 10 mM sodium molybdate, 10 dithiothreitol, […] ^3H-TA (20 Ci mmol^−1, Amersham) and 10 microliters translation mixture or 100 microgram fresh 1M-9 cytosol. Unlabeled steroid competitor (15 microM) was added as indicated. After 2 h at 0° C., samples were extracted twice for 5 min. each with 5 microliter of 50% dextran-coated charcoal to remove unbound steroid, and counted.

[7] = target: T2, hMR; experiment: [^3H]aldosterone binding and steroid competition in extracts of pRShMR-transfected COS cells; set-up: expressed in transfected cells; host or cells: COS cells transfected with pRShMR (DEAE-dextran); details: 1-, 10-, or 100-fold molar excess of unlabeled steroid
Procedure: Ligand specificity of the hMR protein was determined by preparing cytosol extracts from COS cells transfected with pRShMR. Two days after transfection, cells were harvested, and hormone binding was measured by a dextran-treated charcoal assay. […] This provided a measure of the relative affinity of each of these steroids for hMR.
Steroid-binding properties of expressed hMR. FIG. 38 Structure of pRShMR, the hMR expression plasmid (41). […] Each point was assayed in triplicate with 100 micrograms of extract protein in a 200-microliter incubation at 0° C. for 2.5 hours. […] The results of two independent trials representative of these competition experiments are shown. Cold competitor was present in 1-, 10-, or 100-fold molar excess. […] Subconfluent COS cells were transfected by the DEAE-dextran method (42) with 10 micrograms of pRShMR per dish. Cells were maintained for 2 days in DMEM (Dulbecco's modification of Eagle's minimum essential medium) with 5 percent charcoal-treated fetal calf serum, then harvested in […] tris-HCl. (pH 7.8), 10 nM NaCl, 1 mM EDTA, 10 mM Na2MoO4, 5 mM dithiothreitol, antipain (5 microgram/ml), leupeptin (5 microgram/ml), and 500 microM phenylmethylsulfonyl fluoride. After centrifugation at 15,000×g for 10 minutes, extracts were adjusted to 100 mM NaCl and 5 percent glycerol before binding. […] After centrifugation at 15,000×g for 2 minutes at 40C, tritium in supernatant was quantified by liquid scintillation spectrophotometry.

competition for T3 binding to rTR alpha by excess compound [3] | competition with ^3H-TA binding to in vitro-synthesized alpha-hGR by excess unlabeled steroid [6] | relative affinity for hMR by competition with 5 nM [^3H]aldosterone (in words) ([7]; listed as hydrocortisone) | SMILES | Kd [1] [nM] | hMR-mediated CAT activity response (in words) [2] | hGR-mediated CAT activity response (in words) [4] | Kd [5] [nM] | relative affinity for hMR by competition with 5 nM [^3H]aldosterone (in words) [7]
no competition | – | – | C[C@]12CCC(=O)C=C1CC[C@@H]1[C@@H]2[C@@H](O)C[C@]2(C=O)[C@@H](C(=O)CO)CC[C@@H]12 [aldosterone] | 25 to 65 | became responsive; also recorded: approximately equivalent | did not respond; also recorded: insensitive | 0.5 to 3 | –
– | could be competed with | very similar affinities | C[C@]12CCC(=O)C=C1CC[C@@H]1[C@@H]2[C@@H](O)C[C@@]2(C)[C@H]1CC[C@]2(O)C(=O)CO [cortisol] | – | also observed | – | – | compete as effectively as aldosterone itself
